Assays:
[1] = Apparent permeability in MDCK cells by LC-MS/MS analysis; assay type: ADME, cell-based, Canis lupus familiaris; conditions: dog
[2] = Intrinsic clearance in human hepatocytes measured per million cells; assay type: ADME, cell-based, Hepatocyte; conditions: read-out: CLH
[3] = target: T1, Glucagon-like peptide 1 receptor (Homo sapiens, UniProt P43220); test: Displacement of [125I]-GLP1 from GLP-1 receptor (unknown origin) expressed in CHO cells membrane pre-incubated for 10 mins followed by [125I]-GLP1 addition and measured after 180 mins by microbeta scintillation counting method; assay type: cell membranes
[4] = target: T1, Glucagon-like peptide 1 receptor; test: Agonist activity at GLP-1 receptor (unknown origin) expressed in CHO cells at 20 uM in presence of BETP by cAMP assay relative to control; assay type: functional, cell-based; conditions: filed as agonist
[5] = Lipophilicity, logD of compound; assay type: physicochemical; conditions: octanol/water
[6] = Drug metabolism in human hepatocytes assessed as glucuronidation by LC/MS/MS analysis; assay type: ADME, cell-based, Hepatocyte
PDE3A1 = test: Inhibition of PDE3A1 (unknown origin); assay type: toxicity, Homo sapiens
CYP2C9 = CYP2C9 (Homo sapiens, UniProt P11712); test: Inhibition of CYP2C9 (unknown origin) at 3 uM relative to control; assay type: ADME
[7] = Drug metabolism in human hepatocytes assessed as oxidation by LC/MS/MS analysis; assay type: ADME, cell-based, Hepatocyte
[8] = target: Voltage-gated inwardly rectifying potassium channel KCNH2 (Homo sapiens, UniProt Q12809); test: Inhibition of human ERG dofetilide binding assay; assay type: toxicity
CYP3A4 = CYP3A4 (Homo sapiens, UniProt P08684); test: Inhibition of CYP3A4 (unknown origin) at 3 uM relative to control; assay type: ADME
CYP2D6 = CYP2D6 (Homo sapiens, UniProt P10635); test: Inhibition of CYP2D6 (unknown origin) at 3 uM relative to control; assay type: ADME
CYP1A2 = target: T2, CYP1A2 (Homo sapiens, UniProt P05177); test: Inhibition of CYP1A2 (unknown origin) at 3 uM relative to control; assay type: ADME
T2 sequence (P05177 whole entry): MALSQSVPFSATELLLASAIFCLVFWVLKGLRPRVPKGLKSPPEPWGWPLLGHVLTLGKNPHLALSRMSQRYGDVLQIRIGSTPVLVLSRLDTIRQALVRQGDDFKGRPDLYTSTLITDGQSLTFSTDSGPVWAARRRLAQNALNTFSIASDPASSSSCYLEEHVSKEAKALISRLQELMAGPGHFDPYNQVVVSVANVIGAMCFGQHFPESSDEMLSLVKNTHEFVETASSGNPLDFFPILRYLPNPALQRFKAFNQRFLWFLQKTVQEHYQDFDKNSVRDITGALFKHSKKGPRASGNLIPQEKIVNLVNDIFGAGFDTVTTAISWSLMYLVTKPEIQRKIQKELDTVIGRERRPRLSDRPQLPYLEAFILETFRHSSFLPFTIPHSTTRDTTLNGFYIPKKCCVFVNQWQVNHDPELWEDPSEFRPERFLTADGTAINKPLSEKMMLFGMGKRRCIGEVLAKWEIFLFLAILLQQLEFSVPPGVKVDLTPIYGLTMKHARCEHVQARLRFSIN

CYP2C8 = target: T3, CYP2C8 (Homo sapiens, UniProt P10632); test: Inhibition of CYP2C8 (unknown origin) at 3 uM relative to control; assay type: ADME
T3 sequence (P10632 whole entry): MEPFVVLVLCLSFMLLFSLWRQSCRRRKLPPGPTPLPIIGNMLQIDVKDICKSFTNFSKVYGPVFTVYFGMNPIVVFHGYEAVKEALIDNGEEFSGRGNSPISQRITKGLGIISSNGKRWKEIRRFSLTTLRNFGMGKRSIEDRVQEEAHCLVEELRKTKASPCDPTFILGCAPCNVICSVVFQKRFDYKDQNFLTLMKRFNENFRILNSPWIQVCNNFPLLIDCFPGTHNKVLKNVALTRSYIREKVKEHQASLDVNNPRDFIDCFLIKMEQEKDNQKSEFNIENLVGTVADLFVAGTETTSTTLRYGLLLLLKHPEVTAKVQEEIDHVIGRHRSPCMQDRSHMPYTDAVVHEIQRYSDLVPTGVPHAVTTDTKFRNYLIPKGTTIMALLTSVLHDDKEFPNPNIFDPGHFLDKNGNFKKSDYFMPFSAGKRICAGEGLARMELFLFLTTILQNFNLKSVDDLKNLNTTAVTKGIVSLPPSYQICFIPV

T1 sequence (P43220 whole entry): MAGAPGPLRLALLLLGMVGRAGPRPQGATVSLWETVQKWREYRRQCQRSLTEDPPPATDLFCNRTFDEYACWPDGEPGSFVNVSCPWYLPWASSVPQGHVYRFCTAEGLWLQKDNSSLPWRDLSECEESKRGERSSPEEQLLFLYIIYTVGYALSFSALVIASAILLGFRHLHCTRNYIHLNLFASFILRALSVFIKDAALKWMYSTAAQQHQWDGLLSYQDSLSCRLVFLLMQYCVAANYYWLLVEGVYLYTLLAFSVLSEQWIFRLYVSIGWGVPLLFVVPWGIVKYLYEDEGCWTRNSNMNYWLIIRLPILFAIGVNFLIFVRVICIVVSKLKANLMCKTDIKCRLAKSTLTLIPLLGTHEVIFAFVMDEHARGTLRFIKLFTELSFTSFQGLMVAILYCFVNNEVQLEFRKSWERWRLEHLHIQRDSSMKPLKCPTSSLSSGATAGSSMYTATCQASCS
Chain of CYP3A4 (P08684 whole entry): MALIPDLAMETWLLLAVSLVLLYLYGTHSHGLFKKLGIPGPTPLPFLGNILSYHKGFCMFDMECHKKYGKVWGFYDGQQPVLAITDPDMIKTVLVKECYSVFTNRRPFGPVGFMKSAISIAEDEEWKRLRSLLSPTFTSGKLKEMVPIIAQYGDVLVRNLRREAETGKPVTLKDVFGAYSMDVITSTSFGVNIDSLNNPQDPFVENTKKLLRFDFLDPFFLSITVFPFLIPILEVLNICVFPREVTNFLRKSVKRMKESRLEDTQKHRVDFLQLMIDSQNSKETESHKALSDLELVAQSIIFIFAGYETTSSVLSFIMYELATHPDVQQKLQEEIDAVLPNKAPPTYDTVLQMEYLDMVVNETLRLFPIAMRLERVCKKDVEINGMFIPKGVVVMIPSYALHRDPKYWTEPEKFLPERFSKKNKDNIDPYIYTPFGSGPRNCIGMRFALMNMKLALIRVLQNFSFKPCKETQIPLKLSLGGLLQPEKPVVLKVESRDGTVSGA
Chain of Voltage-gated inwardly rectifying potassium channel KCNH2 (Q12809 whole entry): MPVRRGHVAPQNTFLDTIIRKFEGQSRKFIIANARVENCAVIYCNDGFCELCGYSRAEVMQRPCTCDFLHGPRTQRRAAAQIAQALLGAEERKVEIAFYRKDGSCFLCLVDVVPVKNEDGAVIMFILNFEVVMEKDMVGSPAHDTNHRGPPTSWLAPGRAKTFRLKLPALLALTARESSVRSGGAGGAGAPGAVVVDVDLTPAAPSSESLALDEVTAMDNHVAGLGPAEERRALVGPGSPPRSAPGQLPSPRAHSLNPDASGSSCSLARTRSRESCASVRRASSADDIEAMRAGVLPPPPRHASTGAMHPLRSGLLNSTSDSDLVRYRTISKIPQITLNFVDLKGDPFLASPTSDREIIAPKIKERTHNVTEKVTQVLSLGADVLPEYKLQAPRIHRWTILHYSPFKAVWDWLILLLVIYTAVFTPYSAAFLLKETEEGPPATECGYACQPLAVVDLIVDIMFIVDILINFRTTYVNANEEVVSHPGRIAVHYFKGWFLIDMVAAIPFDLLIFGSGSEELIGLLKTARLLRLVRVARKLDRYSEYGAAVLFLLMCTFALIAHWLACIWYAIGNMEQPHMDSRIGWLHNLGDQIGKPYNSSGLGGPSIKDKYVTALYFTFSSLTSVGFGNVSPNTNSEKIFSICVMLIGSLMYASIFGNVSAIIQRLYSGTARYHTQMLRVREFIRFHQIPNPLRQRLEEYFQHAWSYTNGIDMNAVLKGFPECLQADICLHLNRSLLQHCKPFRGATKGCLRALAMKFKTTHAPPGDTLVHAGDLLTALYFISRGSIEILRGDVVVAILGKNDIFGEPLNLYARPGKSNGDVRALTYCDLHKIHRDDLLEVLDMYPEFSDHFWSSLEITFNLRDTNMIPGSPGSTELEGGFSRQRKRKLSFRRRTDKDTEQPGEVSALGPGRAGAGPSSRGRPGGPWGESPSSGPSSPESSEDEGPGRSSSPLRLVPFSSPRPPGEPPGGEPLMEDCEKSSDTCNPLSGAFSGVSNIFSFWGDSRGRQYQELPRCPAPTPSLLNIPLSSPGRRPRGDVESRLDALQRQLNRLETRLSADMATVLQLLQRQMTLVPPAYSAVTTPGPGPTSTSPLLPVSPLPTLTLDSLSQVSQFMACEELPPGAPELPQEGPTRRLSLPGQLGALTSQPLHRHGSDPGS
Chain of CYP2C9 (P11712 whole entry): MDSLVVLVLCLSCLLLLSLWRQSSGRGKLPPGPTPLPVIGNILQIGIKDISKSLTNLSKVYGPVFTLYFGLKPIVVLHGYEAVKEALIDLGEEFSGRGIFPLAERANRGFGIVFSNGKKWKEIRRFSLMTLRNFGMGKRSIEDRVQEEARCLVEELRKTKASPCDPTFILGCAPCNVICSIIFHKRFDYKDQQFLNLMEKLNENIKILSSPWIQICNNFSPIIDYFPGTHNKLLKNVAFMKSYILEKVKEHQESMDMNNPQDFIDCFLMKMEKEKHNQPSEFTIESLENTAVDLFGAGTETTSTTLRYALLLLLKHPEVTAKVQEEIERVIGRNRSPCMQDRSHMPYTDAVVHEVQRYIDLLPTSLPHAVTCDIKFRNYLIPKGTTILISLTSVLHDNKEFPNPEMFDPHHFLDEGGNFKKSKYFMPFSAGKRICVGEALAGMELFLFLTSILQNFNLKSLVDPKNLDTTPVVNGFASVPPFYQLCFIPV
Chain of CYP2D6 (P10635 whole entry): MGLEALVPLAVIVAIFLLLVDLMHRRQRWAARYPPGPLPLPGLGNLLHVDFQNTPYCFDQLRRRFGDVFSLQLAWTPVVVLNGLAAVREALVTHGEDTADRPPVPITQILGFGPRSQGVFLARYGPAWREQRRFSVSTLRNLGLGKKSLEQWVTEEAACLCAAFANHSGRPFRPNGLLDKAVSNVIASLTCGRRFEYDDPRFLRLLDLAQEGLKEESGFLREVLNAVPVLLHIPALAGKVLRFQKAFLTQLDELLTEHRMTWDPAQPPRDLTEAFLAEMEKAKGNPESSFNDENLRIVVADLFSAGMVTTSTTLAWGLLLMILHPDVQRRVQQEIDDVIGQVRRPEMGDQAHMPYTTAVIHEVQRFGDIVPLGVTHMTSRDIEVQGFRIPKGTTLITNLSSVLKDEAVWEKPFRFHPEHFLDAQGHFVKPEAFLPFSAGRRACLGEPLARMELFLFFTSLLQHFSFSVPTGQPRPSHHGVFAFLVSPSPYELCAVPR

| Structure (SMILES) | Papp [1] [×10⁻⁶ cm/s] | hepatocyte CLint [2] [µL/min/1e6 cells] | EC50 [3] [nM] | further results |
| --- | --- | --- | --- | --- |
| O=C(O)c1ccc2nc([C@H]3CC34CCN(c3nc(OCc5ccc(Cl)cc5F)ncc3F)CC4)n(C[C@@H]3CCO3)c2n1 | 7 | 14 | 15 | – |
| Cn1c(CC2CCN(c3nc(OCc4ccc(Cl)cc4F)ncc3F)CC2)nc2ncccc21 | – | – | – | Activity [4]: 75% |
| O=C(O)c1ccc2nc([C@H]3CC34CCN(c3nccc(OCc5ccc(Cl)cc5F)n3)CC4)n(C[C@@H]3CCO3)c2c1 | 2 | 30 | 32 | – |
| N#Cc1ccc(COc2ccc(F)c(N3CCC4(CC3)C[C@@H]4c3nc4ccc(C(=O)O)cc4n3C[C@@H]3CCO3)n2)c(F)c1 | 6 | 32 | 5.8 | logD [5]: 2.3; Drug metabolism [6]: Metabolite_Detected; IC50 (PDE3A1): 409 nM; inhibition at 3 µM (CYP2C9): < 20%; Drug metabolism [7]: Metabolite_Detected; Ki [8]: > 40000 nM; inhibition at 3 µM (CYP3A4): < 20%; inhibition at 3 µM (CYP2D6): < 20%; inhibition at 3 µM (CYP1A2): < 20%; inhibition at 3 µM (CYP2C8): 60% |
| N#Cc1ccc(COc2cccc(N3CCC4(CC3)C[C@@H]4c3nc4ccc(C(=O)O)cc4n3C[C@@H]3CCO3)n2)c(F)c1 | 7 | 23 | 15 | – |
| Cn1c(CN2CCC(c3nc(OCc4ccc(Cl)cc4F)ncc3F)CC2)nc2ccccc21 | – | – | – | Activity [4]: 70% |
| N#Cc1ccc(COc2nc(N3CCC4(CC3)C[C@@H]4c3nc4ccc(C(=O)O)cc4n3C[C@@H]3CCO3)c(F)cc2F)c(F)c1 | 5 | 37 | 4.1 | – |
| N#Cc1ccc(COc2nc(N3CCC4(CC3)C[C@@H]4c3nc4ccc(C(=O)O)cc4n3C[C@@H]3CCO3)ccc2F)c(F)c1 | 5 | 20 | 14 | – |
| N#Cc1ccc(COc2cccc(C3CCN(Cc4nc5ccc(C(=O)O)cc5n4C[C@@H]4CCO4)CC3)n2)c(F)c1 [DANUGLIPRON] | 10 | 7 | – | – |
| Cn1c(CC2CCN(c3nc(OCc4ccc(Cl)cc4F)ncc3F)CC2)nc2ccccc21 | – | – | – | Activity [4]: 40% |
| O=C(O)c1ccc2nc([C@H]3CC34CCN(c3ncc(F)c(OCc5ccc(Cl)cc5F)n3)CC4)n(C[C@@H]3CCO3)c2c1 | 3 | 27 | 19 | – |
| O=C(O)c1ccc2nc([C@H]3CC34CCN(c3nc(OCc5ccc(Cl)cc5F)ncc3F)CC4)n(C[C@H]3CCO3)c2c1 | 5 | 21 | – | – |

Source: ChEMBL document CHEMBL5365423, “6-Azaspiro[2.5]octanes as small molecule agonists of the human glucagon-like peptide-1 receptor” (Bioorg Med Chem Lett, 2023)
